Measured values taken from PubChem BioAssay (NCI).
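Dose response: 5 concentrations. Exposure: 48 h. Format: 96-well plates. Endpoint: linear interpolation; highest concentration if not reached. GI50 marks 50% less growth. TGI marks complete inhibition of growth.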

Assays:
Assay in all cases: NCI anticancer screen, dose series, 48 h
[1] = system: 786-0 renal
[2] = system: A498 renal
[3] = system: ACHN renal
[4] = system: BT-549 breast
[5] = system: CAKI-1 renal
[6] = system: CCRF-CEM leukemia
[7] = system: COLO 205 colon
[8] = system: DU-145 prostate
[9] = system: EKVX NSCLC
[10] = system: HCC-2998 colon
[11] = system: HCT-116 colon
[12] = system: HCT-15 colon
[13] = system: HL-60(TB) leukemia
[14] = system: HOP-62 NSCLC
[15] = system: HS 578T breast
[16] = system: HT29 colon
[17] = system: IGROV1 ovarian
[18] = system: KM12 colon
[19] = system: LOX IMVI melanoma
[20] = system: M14 melanoma
[21] = system: MALME-3M melanoma
[22] = system: MCF7 breast
[23] = system: MDA-MB-435
[24] = system: MOLT-4 leukemia
[25] = system: NCI-H226 lung
[26] = system: NCI-H23 lung
[27] = system: NCI-H460 lung
[28] = system: NCI-H522 lung
[29] = system: NCI/ADR-RES ovarian
[30] = system: OVCAR-3 ovarian
[31] = system: OVCAR-4 ovarian
[32] = system: OVCAR-5 ovarian
[33] = system: OVCAR-8 ovarian
[34] = system: PC-3 prostate
[35] = system: RXF 393 renal
[36] = system: SF-268 CNS
[37] = system: SF-295 CNS
[38] = system: SF-539 CNS
[39] = system: SK-MEL-2 melanoma
[40] = system: SK-MEL-28 melanoma
[41] = system: SK-MEL-5 melanoma
[42] = system: SK-OV-3 ovarian
[43] = system: SN12C renal
[44] = system: SNB-19 CNS
[45] = system: SNB-75 CNS
[46] = system: SW-620 colon
[47] = system: T-47D breast
[48] = system: TK-10 renal
[49] = system: U251 CNS
[50] = system: UACC-257 melanoma
[51] = system: UACC-62 melanoma
[52] = system: UO-31 renal
[53] = system: A549 NSCLC
[54] = system: HOP-92 NSCLC
[55] = system: K-562 leukemia
[56] = system: MDA-MB-231 breast
[57] = system: RPMI-8226 leukemia
[58] = system: SR leukemia

`N/C(=N\c1nc2ccccc2s1)NC(=NC1CCCCC1)NC1CCCCC1` gave a GI50 [1] of 1.65 µM, a TGI [1] of 3.23 µM and a GI50 [2] of 1.71 µM. The TGI [2] was 3.11 µM, the GI50 [3] was 1.6 µM and the TGI [3] was 2.96 µM. It also gave a GI50 [4] of 1.65 µM, a TGI [4] of 3.22 µM and a GI50 [5] of 1.53 µM. It also gave a TGI [5] of 2.89 µM, a GI50 [6] of 2.46 µM and a TGI [6] of 9.28 µM. The GI50 [7] was 1.7 µM, the TGI [7] was 3.6 µM and the GI50 [8] was 1.78 µM. The TGI [8] was 3.34 µM, the GI50 [9] was 1.51 µM and the TGI [9] was 2.93 µM. It also gave a GI50 [10] of 1.58 µM, a TGI [10] of 2.98 µM and a GI50 [11] of 1.43 µM. For the same compound, the TGI [11] was 3.01 µM, the GI50 [12] was 1.47 µM and the TGI [12] was 2.93 µM. For the same compound, the GI50 [13] was 1.83 µM, the TGI [13] was 4.35 µM and the GI50 [14] was 1.78 µM. It also gave a TGI [14] of 3.99 µM, a GI50 [15] of 1.77 µM and a TGI [15] of 3.89 µM. For the same compound, the GI50 [16] was 1.63 µM, the TGI [16] was 3.66 µM and the GI50 [17] was 1.46 µM. The TGI [17] was 2.95 µM, the GI50 [18] was 1.94 µM and the TGI [18] was 3.78 µM. It also gave a GI50 [19] of 1.61 µM, a TGI [19] of 2.99 µM and a GI50 [20] of 1.63 µM. It also gave a TGI [20] of 3.31 µM, a GI50 [21] of 1.52 µM and a TGI [21] of 3.13 µM. It also gave a GI50 [22] of 1.46 µM, a TGI [22] of 2.83 µM and a GI50 [23] of 1.44 µM. For the same compound, the TGI [23] was 2.8 µM, the GI50 [24] was 1.98 µM and the TGI [24] was 5.45 µM. The GI50 [25] was 1.67 µM, the TGI [25] was 3.23 µM and the GI50 [26] was 1.75 µM. The TGI [26] was 3.38 µM, the GI50 [27] was 1.77 µM and the TGI [27] was 3.43 µM. It also gave a GI50 [28] of 1.89 µM, a TGI [28] of 4.22 µM and a GI50 [29] of 1.64 µM. For the same compound, the TGI [29] was 3.3 µM, the GI50 [30] was 1.68 µM and the TGI [30] was 3.17 µM. The GI50 [31] was 1.63 µM, the TGI [31] was 3.29 µM and the GI50 [32] was 1.62 µM. For the same compound, the TGI [32] was 3.07 µM, the GI50 [33] was 1.97 µM and the TGI [33] was 4.98 µM. It also gave a GI50 [34] of 1.52 µM, a TGI [34] of 3.33 µM and a GI50 [35] of 1.46 µM. It also gave a TGI [35] of 2.86 µM, a GI50 [36] of 1.81 µM and a TGI [36] of 3.65 µM. It also gave a GI50 [37] of 1.64 µM, a TGI [37] of 3.03 µM and a GI50 [38] of 1.66 µM. The TGI [38] was 3.12 µM, the GI50 [39] was 1.78 µM and the TGI [39] was 3.47 µM. For the same compound, the GI50 [40] was 1.75 µM, the TGI [40] was 3.24 µM and the GI50 [41] was 1.8 µM. It also gave a TGI [41] of 3.21 µM, a GI50 [42] of 1.84 µM and a TGI [42] of 3.53 µM. For the same compound, the GI50 [43] was 1.61 µM, the TGI [43] was 3.11 µM and the GI50 [44] was 1.59 µM. It also gave a TGI [44] of 3.02 µM, a GI50 [45] of 1.33 µM and a TGI [45] of 2.62 µM. It also gave a GI50 [46] of 1.65 µM, a TGI [46] of 3.33 µM and a GI50 [47] of 1.84 µM. It also gave a TGI [47] of 4.15 µM, a GI50 [48] of 1.64 µM and a TGI [48] of 3.28 µM. For the same compound, the GI50 [49] was 1.68 µM, the TGI [49] was 3.48 µM and the GI50 [50] was 1.76 µM. The TGI [50] was 3.65 µM, the GI50 [51] was 1.61 µM and the TGI [51] was 3.01 µM. The GI50 [52] was 1.27 µM and the TGI [52] was 2.55 µM.

`C=C1C(=O)O[C@H]2[C@H]1CC/C(CNC(=O)/C=C/c1ccccc1)=C\CC[C@@]1(C)O[C@@H]21` was tested, and the GI50 [1] was 1.48 µM, the TGI [1] was 3.69 µM and the GI50 [2] was 1.96 µM. For the same compound, the TGI [2] was 4 µM, the GI50 [53] was 4.39 µM and the TGI [53] was 19 µM. For the same compound, the GI50 [3] was 0.755 µM, the TGI [3] was 2.03 µM and the GI50 [4] was 1.46 µM. For the same compound, the TGI [4] was 3.47 µM, the GI50 [5] was 1.17 µM and the TGI [5] was 2.49 µM. For the same compound, the GI50 [6] was 0.342 µM, the TGI [6] was 1.3 µM and the GI50 [7] was 0.966 µM. For the same compound, the TGI [7] was 2.6 µM, the GI50 [8] was 0.603 µM and the TGI [8] was 1.88 µM. For the same compound, the GI50 [9] was 1.65 µM, the TGI [9] was 4.51 µM and the GI50 [10] was 1.78 µM. It also gave a TGI [10] of 3.31 µM, a GI50 [11] of 0.465 µM and a TGI [11] of 1.75 µM. It also gave a GI50 [12] of 0.672 µM, a TGI [12] of 2.06 µM and a GI50 [14] of 3.37 µM. The TGI [14] was 14 µM, the GI50 [54] was 1.46 µM and the TGI [54] was 3.38 µM. For the same compound, the GI50 [15] was 4.21 µM, the TGI [15] was 37 µM and the GI50 [16] was 0.754 µM. It also gave a TGI [16] of 3.04 µM, a GI50 [17] of 1.7 µM and a TGI [17] of 5.01 µM. For the same compound, the GI50 [55] was 0.551 µM, the TGI [55] was 7.09 µM and the GI50 [18] was 4.94 µM. The TGI [18] was 16.7 µM, the GI50 [19] was 0.997 µM and the TGI [19] was 2.29 µM. It also gave a GI50 [20] of 1.15 µM, a TGI [20] of 3.23 µM and a GI50 [21] of 1.45 µM. It also gave a TGI [21] of 3.29 µM, a GI50 [56] of 1.59 µM and a TGI [56] of 3.08 µM. For the same compound, the GI50 [23] was 1.35 µM, the TGI [23] was 6.41 µM and the GI50 [24] was 1.47 µM. The TGI [24] was 5.22 µM, the GI50 [25] was 2.5 µM and the TGI [25] was 6.59 µM. For the same compound, the GI50 [26] was 1.73 µM, the TGI [26] was 3.9 µM and the GI50 [27] was 2.18 µM. For the same compound, the TGI [27] was 5.05 µM, the GI50 [28] was 0.357 µM and the TGI [28] was 1.71 µM. It also gave a GI50 [29] of 3.29 µM, a TGI [29] of 14.5 µM and a GI50 [30] of 0.558 µM. The TGI [30] was 1.83 µM, the GI50 [31] was 1.51 µM and the TGI [31] was 4.14 µM. For the same compound, the GI50 [32] was 1.61 µM, the TGI [32] was 4.27 µM and the GI50 [33] was 2.44 µM. For the same compound, the TGI [33] was 9.78 µM, the GI50 [34] was 1.92 µM and the TGI [34] was 4.15 µM. The GI50 [57] was 0.71 µM, the TGI [57] was 3.9 µM and the GI50 [35] was 0.864 µM. It also gave a TGI [35] of 2.15 µM, a GI50 [36] of 2.86 µM and a TGI [36] of 8.88 µM. For the same compound, the GI50 [37] was 5.25 µM, the TGI [37] was 18.7 µM and the GI50 [38] was 0.964 µM. For the same compound, the TGI [38] was 2.37 µM, the GI50 [39] was 1.49 µM and the TGI [39] was 3.41 µM. For the same compound, the GI50 [40] was 1.48 µM, the TGI [40] was 4.18 µM and the GI50 [41] was 1.68 µM. For the same compound, the TGI [41] was 3.06 µM, the GI50 [42] was 13.2 µM and the TGI [42] was 26 µM. It also gave a GI50 [43] of 1.15 µM, a TGI [43] of 2.79 µM and a GI50 [44] of 2.39 µM. For the same compound, the TGI [44] was 10.9 µM, the GI50 [45] was 1.67 µM and the TGI [45] was 4.74 µM. It also gave a GI50 [58] of 0.38 µM, a TGI [58] of 4.97 µM and a GI50 [46] of 0.577 µM. For the same compound, the TGI [46] was 2.32 µM, the GI50 [47] was 1.44 µM and the TGI [47] was 4.3 µM. The GI50 [48] was 1.42 µM, the TGI [48] was 3.03 µM and the GI50 [49] was 1.77 µM. The TGI [49] was 3.55 µM, the GI50 [50] was 1.53 µM and the TGI [50] was 3.99 µM. For the same compound, the GI50 [51] was 1.37 µM, the TGI [51] was 2.76 µM and the GI50 [52] was 1.21 µM. It also gave a TGI [52] of 2.56 µM.
